From ChEMBL document CHEMBL4373645, “Recent development of leucyl-tRNA synthetase inhibitors as antimicrobial agents” (Medchemcomm, 2019)
≈ marks a conversion by molar mass, not a printed value.

Assays:
Streptococcus pneumoniae = assay: Antibacterial activity against Streptococcus pneumoniae assessed as the reduction in bacterial growth incubated for 24 hrs by dilution antimicrobial susceptibility test; type: functional
[1] = Inhibition of Trypanosoma brucei LeuRS presence of [14C]leucine by scintillation counting method
Trypanosoma brucei = assay: Inhibition of Trypanosoma brucei LeuRS assessed as residual activity at 100 uM incubated for 5 mins in presence of [14C]leucine by scintillation counting method relative to control
Leucine--tRNA ligase = Leucine--tRNA ligase (Escherichia coli (strain K12), UniProt P07813); assay: Binding affinity to Escherichia coli LeuRS
[2] = Inhibition of Trypanosoma brucei LeuRS preincubated for 20 mins followed by ATP addition measured after 15 mins in presence of [14C]leucine by scintillation counting method
[3] = system: Mycobacterium tuberculosis; assay: Antitubercular activity against Mycobacterium tuberculosis H37Rv by time-kill assay; type: functional
[4] = Selectivity index, ratio of IC50 for human cytoplasmic LeuRS to IC50 for Trypanosoma brucei LeuRS
[5] = Inhibition of human LeuRS after 10 mins in presence of [3H]leucine by scintillation counting method

Sequence of Leucine--tRNA ligase (P07813 whole entry): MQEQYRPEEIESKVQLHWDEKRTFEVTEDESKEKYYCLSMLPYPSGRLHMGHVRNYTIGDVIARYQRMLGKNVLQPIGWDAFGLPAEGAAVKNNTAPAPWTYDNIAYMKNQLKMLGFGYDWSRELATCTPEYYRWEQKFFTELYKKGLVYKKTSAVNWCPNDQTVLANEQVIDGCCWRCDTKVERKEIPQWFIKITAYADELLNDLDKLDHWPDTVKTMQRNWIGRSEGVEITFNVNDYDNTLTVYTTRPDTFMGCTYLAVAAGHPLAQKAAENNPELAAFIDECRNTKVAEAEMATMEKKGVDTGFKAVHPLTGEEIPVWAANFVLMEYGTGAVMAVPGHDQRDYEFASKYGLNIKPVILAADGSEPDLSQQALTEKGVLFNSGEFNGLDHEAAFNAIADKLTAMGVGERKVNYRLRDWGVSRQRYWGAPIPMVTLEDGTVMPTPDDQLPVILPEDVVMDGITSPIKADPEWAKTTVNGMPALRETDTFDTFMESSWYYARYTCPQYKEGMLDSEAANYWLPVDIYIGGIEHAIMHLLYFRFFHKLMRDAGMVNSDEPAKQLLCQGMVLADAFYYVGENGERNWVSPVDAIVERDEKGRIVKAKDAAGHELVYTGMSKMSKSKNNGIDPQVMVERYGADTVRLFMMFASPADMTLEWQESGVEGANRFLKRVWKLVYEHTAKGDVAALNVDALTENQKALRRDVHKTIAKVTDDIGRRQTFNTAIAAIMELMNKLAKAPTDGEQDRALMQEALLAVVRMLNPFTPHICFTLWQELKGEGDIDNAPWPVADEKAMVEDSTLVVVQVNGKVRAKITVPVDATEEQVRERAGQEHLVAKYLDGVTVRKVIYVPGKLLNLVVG

| SMILES | IC50 [2] [µM] | Ratio IC50 [4] | IC50 [5] [µM] | further results |
| --- | --- | --- | --- | --- |
| OB1OCc2ccc(C(O)c3ccccc3)cc21 (stereo not drawn) |  |  |  | MIC (Streptococcus pneumoniae): 5 µg/mL (≈ 20.8 µM) |
| Cc1n[nH]c(=O)nc1Nc1cc(Cl)ccc1O |  |  |  | IC50 [1]: 7.6 µM; Activity (Trypanosoma brucei): 2.3% |
| Cc1cc(-c2cccc(S(=O)(=O)CC(=O)[C@@H](N)CC(C)C)c2)ncn1 |  |  |  | Kd (Leucine--tRNA ligase): 0.0014 µM |
| O=c1nc(Nc2cc(Cl)ccc2O)cn[nH]1 |  |  |  | IC50 [1]: 7.2 µM; Activity (Trypanosoma brucei): 18% |
| O=C(COc1ccc(Br)cc1Cl)NC(=S)Nc1cccc(S(=O)(=O)NC(=O)[C@H](Cc2ccccc2)NC(=O)OCc2ccccc2)c1 | 13.7 |  |  |  |
| OB1OCc2ccccc21 [BENZOXABOROLE] |  |  |  | MIC [3]: 7.5 µg/mL (≈ 56 µM) |
| COc1cccc(C(=O)NC(=S)Nc2cccc(S(=O)(=O)NC(=O)[C@@H](N)CC(C)C)c2)c1 | 6.7 | 4.5 to 7.3 | 40 |  |
| NS(=O)(=O)c1ccc(NC(=S)NC(=O)COc2ccc(Br)cc2Cl)cc1 | 174 |  |  |  |
| CC(C)C[C@H](NC(=O)OCc1ccccc1)C(=O)NS(=O)(=O)c1cccc(NC(=S)NC(=O)COc2ccc(Br)cc2Cl)c1 | 16.7 |  |  |  |
| COc1ccc(C(=O)NC(=S)Nc2cccc(S(=O)(=O)NC(=O)[C@@H](N)CC(C)C)c2)cc1 | 5.6 | 4.5 to 7.3 | 33.9 |  |
| CC(C)C[C@H](N)C(=O)NS(=O)(=O)c1cccc(NC(=S)NC(=O)c2ccccc2)c1 | 7.6 | 4.5 to 7.3 | 55.5 |  |
| NCC1OB(O)c2ccccc21 (stereo not drawn) |  |  |  | MIC [3]: 1.8 µg/mL (≈ 11 µM) |
| CC(C)C[C@H](N)C(=O)NS(=O)(=O)c1cccc(NC(=S)NC(=O)COc2ccc(Br)cc2Cl)c1 | 1.1 | 4.5 to 7.3 | 4.9 |  |
